Assay results: EP3431468B1, “USE OF ADIPONECTIN RECEPTOR AGONISTS IN TREATING DEPRESSION, ANXIETY AND NEUROINFLAMMATION” (CENTRE NATIONAL DE LA RECHERCHE SCIENTIFIQUE, priority 2017, dated 2019)

How the values were obtained:
[1] = system: AMPK; assay: AMPK phosphorylation in hypothalamus by western blot; format: in vivo, mice; conditions: 1mg/kg
[2] = system: Kyn pathway; assay: Kynurenine pathway metabolites measurement in plasma; format: in vivo; conditions: long-term corticosterone-treated mice, chronic AdipoRon treatment
Experimental: Data were digitized at 5-10 kHz using a Digidata interface coupled to a microcomputer running pClamp 9 (Axon Instruments, USA). Current-clamp data were digitized at 0.5 kHz using the same interface. Potentials were digitally filtered at 1-3 kHz. Average data were expressed as mean ± SEM, n = number of neurons, N = number of mice. • Western blot analysis - Total proteins were extracted from mouse hypothalamus by homogenization in lysis buffer (50mM Tris-HCl, pH7.5, 150mM NaCl, 5mM EDTA containing 0.5% Triton X-100 and 0.5% sodium deoxycholate with a coktail of protease and phosphatase inhibitors). Equal amounts of total proteins (50µg) determined by the Bradford method (BioRad) were separated onto 12% SDS-PAGE, then transferred on nitrocellulose membrane (Schleicher & Schuell, Dassel, Germany). […] IFNγ, IL1β, IL6, and TNFα, levels were measured using an electro-chemo-luminescence (ECL)-based assay (U-plex, MesoScaleDiscovery) following manufacturer instructions. Results were standardized according to the protein concentration of each sample determined by the Bradford method. • Kynurenine pathway metabolites measurement - Plasma levels of L-kynurenin (L-Kyn), tryptophan (Trp), kynurenin acid (Kyn ac), 5-HT and 5-HIAA were determined as follows: 25µl of plasma was deproteinated with 150µl of cold MeOH. […]

Compound: O=C(COc1ccc(C(=O)c2ccccc2)cc1)NC1CCN(Cc2ccccc2)CC1 [AdipoRon, 2-(4-Benzoylphenoxy)-N-[1-(phenylmethyl)-4-piperidinyl]-acetamide]
- level of phospho-AMPK ([1]; 1-hour post ip injection): increased the level of phospho-AMPK
- level of phospho-AMPK ([1]; 30 min post ip injection): increased the level of phospho-AMPK
- level of phospho-AMPK ([1]; 3 hours post ip injection): no longer observable
- Kyn ac:L-Kyn ratio [2]: restoring the physiological
- L-Kyn:Trp ratio [2]: restoring the physiological
